From paper PMC3320663 (Chemmedchem, 2011)
Several values for one entry are separate records, joined by “and”; a condition that tells them apart may be missing. Equal values may be shown once. Read-outs that look alike come from different tables or passages of the source.

Legend:
[1] = tested on: bloodstream form T. brucei; details: read-out: cell potency, cited from earlier work
[2] = tested on: bloodstream form T. brucei; assay: Trypanosomal cell proliferation assay; format: cell-based; details: Trypanosoma brucei, read-out: Tb EC50
[3] = Human cell counter-screen proliferation assay; format: cell-based; details: MRC5 fibroblasts
[4] = molecular target: T1, TbTryS (Trypanosoma brucei, UniProt Q586P2); assay: Trypanothione synthetase; format: biochemical; details: for LE (ligand efficiency): calculated as −0.6×ln(IC50)/(heavy atom count)
T1 sequence (Q586P2 1-627): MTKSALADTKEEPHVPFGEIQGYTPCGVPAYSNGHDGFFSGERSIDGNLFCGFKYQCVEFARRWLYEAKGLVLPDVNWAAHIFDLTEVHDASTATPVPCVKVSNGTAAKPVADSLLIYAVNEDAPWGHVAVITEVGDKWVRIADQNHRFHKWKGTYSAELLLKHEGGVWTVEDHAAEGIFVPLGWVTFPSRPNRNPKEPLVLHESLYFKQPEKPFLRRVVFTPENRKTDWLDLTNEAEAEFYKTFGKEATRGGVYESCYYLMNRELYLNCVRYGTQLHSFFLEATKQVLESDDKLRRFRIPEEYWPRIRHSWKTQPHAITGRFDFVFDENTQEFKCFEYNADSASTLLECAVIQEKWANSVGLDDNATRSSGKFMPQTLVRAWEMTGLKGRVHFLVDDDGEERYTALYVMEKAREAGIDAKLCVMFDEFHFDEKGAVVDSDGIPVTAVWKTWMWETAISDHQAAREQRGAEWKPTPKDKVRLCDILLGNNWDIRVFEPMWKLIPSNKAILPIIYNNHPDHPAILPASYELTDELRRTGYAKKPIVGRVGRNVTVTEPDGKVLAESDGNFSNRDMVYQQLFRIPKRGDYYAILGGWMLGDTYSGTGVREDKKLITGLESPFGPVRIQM

[5] = In vitro metabolic clearance assay; format: in vitro ADME, human; details: for metabolic stability in words: pooled human liver microsomes; for Cli (intrinsic clearance): pooled human microsomes
[6] = tested on: wild-type T. brucei cells; details: read-out: EC50 wild-type cell line; cited from earlier work
[7] = tested on: TbTryS overexpressing (OE) cell line; details: read-out: EC50 OE cell line; cited from earlier work
[8] = tested on: trypanothione levels in T. brucei parasites; details: of wild-type levels; 2×EC50 for 72 h; cited from earlier work
[9] = tested on: TbTryS single knockout (SKO) cell line; details: read-out: EC50 SKO cell line; cited from earlier work

Nc1nc(N)nc(Nc2ccc([As]3SCC(CO)S3)cc2)n1 (centres unmarked) [melarsoprol]
EC50 ([1]; drug in clinical use): 0.008 µM

CC1CS(=O)(=O)CCN1/N=C/c1ccc([N+](=O)[O-])o1 (centres unmarked) [nifurtimox]
EC50 ([1]; drugs in clinical use): 2 µM

O=C(Cn1nc(C(F)(F)F)c2c1CCCC2)NCc1ccc(Cl)cc1 [Compound 26, N-(4-Chlorobenzyl)-2-(3-(trifluoromethyl)-4,5,6,7-tetrahydro-1H-indazol-1-yl)acetamide]
EC50 [2]: 14 µM
EC50 [3]: > 50 µM
IC50 ([4]; TbTryS IC50): 3 µM
metabolic stability in words [5]: reasonably metabolically stable
Cli (intrinsic clearance) [5]: 3.0 mL/min/g

CN(C)CCCNC(=O)Cn1nc(-c2cccc(F)c2)c2ccccc21 [Compound 84, N-(3-(Dimethylamino)propyl)-2-(3-(3-fluorophenyl)-1H-indazol-1-yl)acetamide]
EC50 [6]: 7.1 µM
EC50 [7]: 23.3 µM
EC50 [2]: 5.4 µM
EC50 [3]: 20 µM
trypanothione levels [8]: < 10%
EC50 [9]: 1.2 µM
in vitro enzyme potency improved over the best HTS hits [4]: > 10 fold
improvement in potency over the analogous piperazines ([4]; 83 vs 90, 84 vs 80): 18 fold
LE (ligand efficiency) [4]: 0.39

CC(C)(C)S(=O)(=O)Cc1nc(-c2cccc(Cl)c2)cs1 [Compound 8, 2-((tert-Butylsulfonyl)methyl)-4-(3-chlorophenyl)thiazole]
EC50 [2]: 22 µM
EC50 [3]: > 50 µM
IC50 ([4]; TbTryS IC50): 0.4 µM and 0.41 µM
metabolic stability in words [5]: reasonably metabolically stable
Cli (intrinsic clearance) [5]: 0.9 mL/min/g

CC(C)(C)C(=O)Cn1nc(-c2cccc(F)c2)c2ccccc21 [Compound 71, 1-(3-(3-Fluorophenyl)-1H-indazol-1-yl)-3,3-dimethylbutan-2-one]
EC50 [2]: 7.9 µM
EC50 [3]: > 50 µM
in vitro enzyme potency improved over the best HTS hits [4]: > 10 fold
IC50 ([4]; TbTryS IC50): 0.09 µM
LE (ligand efficiency) [4]: 0.42
metabolic stability in words [5]: reasonably metabolically stable
Cli (intrinsic clearance) [5]: 1.6 mL/min/g

CCC(=O)Cn1nnc(-c2cc(Cl)cc(Cl)c2)n1 [Compound 22, 1-(5-(3,5-Dichlorophenyl)-2H-tetrazol-2-yl)butan-2-one]
IC50 ([4]; TbTryS IC50): 2.7 µM

NCCCC(N)(C(=O)O)C(F)F (centres unmarked) [eflornithine]
EC50 ([1]; drugs in clinical use): 22 µM

Cc1nc(Cn2nc(-c3cccc(F)c3)c3ccccc32)c(C)o1 [Compound 77, 4-((3-(3-Fluorophenyl)-1H-indazol-1-yl)methyl)-2,5-dimethyloxazole]
IC50 ([4]; TbTryS IC50): 28 µM
LE (ligand efficiency) [4]: 0.26

3-(tert-Butylsulfonylmethyl)-1-(3-fluorophenyl)-1H-indazole [Compound 73]
LE (ligand efficiency) [4]: 0.41
IC50 ([4]; read-out: TbTryS IC50): 0.08 µM

CC(C)(C)C(=O)Cn1nc(-c2ccccc2)c2ccccc21 [Compound 60, 1-(3-Phenyl-1H-indazol-1-yl)-3,3-dimethylbutan-2-one]
IC50 ([4]; TbTryS IC50): 0.15 µM

O=C(Cn1nnc(-c2cc(F)cc(F)c2)n1)c1ccccc1 [Compound 24, 2-(5-(3,5-Difluorophenyl)-2H-tetrazol-2-yl)-1-phenylethanone]
IC50 ([4]; TbTryS IC50): 45 µM

O=C(Cn1nc(-c2cccc(F)c2)c2ccccc21)N1CCCCC1 [Compound 89, 2-(3-(3-Fluorophenyl)-1H-indazol-1-yl)-1-(piperidin-1-yl)ethanone]
EC50 [6]: 20.4 µM
EC50 [7]: 44.5 µM
EC50 [2]: 5.1 µM
EC50 [3]: > 50 µM
trypanothione levels [8]: < 10%
EC50 [9]: 6.9 µM
IC50 ([4]; TbTryS IC50): 0.14 µM
IC50 ([4]; TbTryS IC50, values in running text): 0.135 µM
LE (ligand efficiency) [4]: 0.38

CC(C)(C)C(=O)Cn1nc(-c2ccc(Cl)cc2)c2ccccc21 [Compound 61, 1-(3-(4-Chlorophenyl)-1H-indazol-1-yl)-3,3-dimethylbutan-2-one]
IC50 ([4]; TbTryS IC50): > 100 µM

CC(=O)Cn1nnc(-c2cc(Cl)cc(Cl)c2)n1 [Compound 21, 1-(5-(3,5-Dichlorophenyl)-2H-tetrazol-2-yl)propan-2-one]
IC50 ([4]; TbTryS IC50): 6.5 µM

CC(C)(C)C(=O)Cn1nnc(-c2ccccc2)n1 [Compound 14, 3,3-Dimethyl-1-(5-phenyl-2H-tetrazol-2-yl)butan-2-one]
IC50 ([4]; TbTryS IC50): 8.8 µM
LE (ligand efficiency) [4]: 0.39

COc1cccc(-c2csc(CS(=O)(=O)C(C)(C)C)n2)c1 [Compound 6, 2-((tert-Butylsulfonyl)methyl)-4-(3-methoxyphenyl)thiazole]
loss in potency relative to unsubstituted compound 3 [4]: 10 fold
IC50 ([4]; TbTryS IC50): 12 µM

CC(C)(C)S(=O)(=O)Cc1nc(-c2cccc(C(F)(F)F)c2)cs1 [Compound 7, 2-(tert-Butylsulfonylmethyl)-4-(3-trifluoromethylphenyl)thiazole]
IC50 ([4]; TbTryS IC50): 1.1 µM

CC(C)(C)C(=O)Cn1nnc(-c2cc(Cl)cc(Cl)c2)n1 [Compound 20, 1-(5-(3,5-Dichlorophenyl)-2H-tetrazol-2-yl)-3,3-dimethylbutan-2-one]
gain in potency relative to unsubstituted scaffold 14 [4]: 25 fold
IC50 ([4]; TbTryS IC50): 0.3 µM
LE (ligand efficiency) [4]: 0.45

CC(C)(C)S(=O)(=O)Cc1nc(-c2ccccc2)cs1 [Compound 3, 2-((tert-Butylsulfonyl)methyl)-4-(phenyl)thiazole]
IC50 ([4]; TbTryS IC50): 1.2 µM
